The test system of one data set is monoamino oxidase B. The note with it: no reference given; cited from earlier work.
The subject of a further data set is monoamino oxidase A. The note with it: cited from earlier work.
The conditions of data set [1]: imidazolyl sulfoxide moiety; cited from earlier work.
The nature of data set [2]: First-in-man PET brain uptake in healthy volunteers. The conditions noted are these: for peak uptake, whole brain: initial perfusion phase, 1 min p.i., i.v. bolus, healthy volunteers.
The target in a further data set is hTau-441 fibrils (Homo sapiens, UniProt P10636). Nature of the data set: Inhibition of [3H]astemizole binding to synthetic hTau-441 fibrils.
Sequence of hTau-441 fibrils (P10636 1-441 isoform P10636-8): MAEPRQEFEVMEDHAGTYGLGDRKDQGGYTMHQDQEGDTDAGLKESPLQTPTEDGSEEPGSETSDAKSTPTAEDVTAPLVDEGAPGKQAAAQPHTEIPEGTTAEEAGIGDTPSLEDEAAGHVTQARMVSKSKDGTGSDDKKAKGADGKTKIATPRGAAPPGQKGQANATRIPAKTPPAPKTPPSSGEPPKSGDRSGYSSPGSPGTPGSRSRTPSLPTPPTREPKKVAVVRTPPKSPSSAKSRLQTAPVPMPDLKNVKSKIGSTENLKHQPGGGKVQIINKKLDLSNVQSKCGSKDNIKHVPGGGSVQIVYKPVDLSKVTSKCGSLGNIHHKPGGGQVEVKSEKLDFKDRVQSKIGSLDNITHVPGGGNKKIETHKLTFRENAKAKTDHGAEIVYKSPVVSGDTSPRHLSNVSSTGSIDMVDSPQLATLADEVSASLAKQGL

Consider `CNc1ccc(-c2ccc3cc(OC[C@H](O)C[18F])ccc3n2)cn1` [[^18F]THK-5351], for which, in the data set on monoamino oxidase B, the “affinity for monoamino oxidase B” value was “high affinity”.

Consider `[18F]c1ccc(-c2ccc3c(c2)[nH]c2ccncc23)cn1` [[^18F]T807], for which the “affinity to monoamino oxidase A” value in the data set with monoamino oxidase A is “high affinity”.

In the case of `Cc1c(OCC(F)(F)[18F])ccnc1C[S+]([O-])c1nc2ccccc2[nH]1` (centres unmarked) [[^18F]1, [^18F]lansoprazole], the “pKa (N–H-acidity)” value in data set [1] is reported as around 4. The “whole brain activity at 2 min p.i.” value in data set [2] (2 min p.i.) is “less than 1.0 % i.D”. Also, the “whole brain activity after 90 min” value in data set [2] (after 90 min) is “below 0.5%”. For the same compound, the “peak uptake, whole brain” value in data set [2] is recorded as 2.5–3.5 % i.D.

As for `Cc1c(OCCF)ccnc1C[S+]([O-])c1nc2ccccc2n1C` (centres unmarked) [11t, 2-(((4-(2-Fluoroethoxy)-3-methylpyridin-2-yl)methyl)sulfinyl)-1-methyl-1H-benzoimidazole], the “htau fibril binding result” value at hTau-441 fibrils is recorded as “very high affinity”.

For the compound `Cc1c(OCC(F)(F)[18F])ccnc1C[S+]([O-])c1nc2ccccc2n1C` (centres unmarked) [[^18F]2], the “radioactivity concentration in brain at 10 min” value in data set [2] (10 min) was “about 3.0 % of the injected dose”. In data set [2] (27 min), the “radioactivity concentration in brain at 27 min” value is on record as ~2.0 % of the injected dose. Further, the “radioactivity concentration in brain at 90 min” value in data set [2] (90 min) is ~1.3 % of the injected dose. Further, the “peak uptake, whole brain” value in data set [2] is reported as 5.0–6.0 % i.D.

Source of the values: PMC6068598 (ACS Omega, 2018).
